Measured values from US11241441B2, “Formulations of lixivaptan for the treatment of polycystic disease” (PALLADIO BIOSCIENCES, INC., priority 2017, dated 2022).

Columns and labels:
V2 receptor [1] = biological target: T1, V2 receptor (Homo sapiens, UniProt P30518); experiment: Ascending multiple-dose, safety and tolerance study in healthy adult male subjects
Method: (§1) Lixivaptan in healthy volunteers was tested in a randomized, double-blind, placebo-controlled, ascending multiple-dose, safety and tolerance clinical study in 98 healthy male subjects.

vasopressin V2 receptor = biological target: T2, vasopressin V2 receptor (Homo sapiens, UniProt P30518); experiment: Uosm in clinical studies in healthy subjects and various patient populations; type: in vivo; details: healthy subjects, hyponatremia patients, ESRD patients
T2 construct: Lixivaptan antagonizes the effects of vasopressin that are mediated by the V2 receptor; from tissue; host or cells: living human subjects (in vivo clinical studies); the receptor is the subjects' own and no tissue was isolated
Method: as §1
Subjects with Syndrome of Inappropriate Anti-Diuretic Hormone (SIADH) secretion were tested in a randomized, double-blind, placebo-controlled, ascending single-dose, safety and tolerance study.

V2 receptor [2] = biological target: T1, V2 receptor; experiment: Single 100 mg oral dose study in ESRD and normal renal function subjects: pharmacodynamics (urine osmolality, vasopressin, urine output); type: in vivo; design: Lixivaptan antagonizes the effects of vasopressin that are mediated by the V2 receptor; from tissue; host or cells: living human subjects (in vivo clinical studies); the receptor is the subjects' own and no tissue was isolated
Method: In this study, the PK of lixivaptan following a single 100 mg oral dose of lixivaptan was evaluated in subjects with end-stage renal disease (ESRD) and control subjects with normal renal function. Pharmacodynamic (PD) evaluations, including vasopressin concentration, serum sodium concentration, urine volume, and urine osmolality were assessed.

Measured Log P = type: physicochemical
[3] = Clinical observation of ALT elevations, 400 mg BID for 7 days; type: in vivo, human; details: 67 individuals
[4] = In-clinic pharmacokinetic study: adverse events, serum osmolality, urine output; type: in vivo, human
Method: Subjects received lixivaptan at total daily doses of 100 mg, 200 mg, or 400 mg (administered as 50, 100, and 200 mg Q12H). Subjects were to be enrolled into the study in two cohorts of 30 subjects, but actual cohort numbers were 23 and 34 subjects. Of the 57 subjects enrolled in the study, 27 were female (47.4%) and 30 were male (52.6%). The majority of subjects were White (35/57, 61.4%) and of Hispanic or Latino ethnicity (46/57, 80.7%). The overall mean age of subjects in the study was 33.6 (8.31) years, and the overall mean body mass index for subjects was 26.2 (3.79). There were to be approximately 20 subjects enrolled per dose level. An approximately equal number of males and females were enrolled at each dose level such that neither gender was represented by fewer than 8 subjects. The starting date for each cohort subjects was staggered by 7 days for logistical purposes. Screening evaluations were performed within 28 days prior to Day 1.
The following doses of lixivaptan were administered to subjects in this study: (a) Lixivaptan 100 mg, administered as 50 mg [1×50 mg capsule] every 12 hours×15 doses; (b) lixivaptan 200 mg, administered as 100 mg [2×50 mg capsules] every 12 hours×15 doses; and (c) Lixivaptan 400 mg, administered as 200 mg [4×50 mg capsules] every 12 hours×15 doses.
Prior to the morning doses of lixivaptan on Days 1 and 8, subjects fasted for approximately 10 hours prior to lixivaptan administration and 4 hours after lixivaptan administration. All other doses were administered under fasting conditions, either 2 hours before or 2 hours after meals. The study medication was administered with 240 milliliters (mL) room temperature water. Subjects were not to receive any oral fluids, other than those used to administer the dose, for 1 hour before and 1 hour after dose administration. Subjects remained sitting or semi-supine, except to void, for 6 hours following the first two doses. While in the clinic, the subjects refrained from strenuous physical activity.

T1 sequence (P30518 whole entry): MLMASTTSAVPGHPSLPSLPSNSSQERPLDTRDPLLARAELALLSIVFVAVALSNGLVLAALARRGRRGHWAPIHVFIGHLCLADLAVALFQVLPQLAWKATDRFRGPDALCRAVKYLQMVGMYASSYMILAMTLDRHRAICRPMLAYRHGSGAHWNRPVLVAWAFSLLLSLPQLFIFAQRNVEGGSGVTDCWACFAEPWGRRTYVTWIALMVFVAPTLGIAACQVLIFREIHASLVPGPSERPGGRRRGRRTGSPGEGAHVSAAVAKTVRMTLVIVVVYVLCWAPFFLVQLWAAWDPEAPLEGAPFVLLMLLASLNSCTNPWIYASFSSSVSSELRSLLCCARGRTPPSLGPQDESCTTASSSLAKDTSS
T2 sequence (P30518 whole entry): as above

**Q.** Which “maintenance of urine osmolality below 300 mOsm/kg” value (V2 receptor [1]; 300 mg to 800 mg doses (FIG. 3)) does the source give for `Cc1ccc(F)cc1C(=O)Nc1ccc(C(=O)N2Cc3cccn3Cc3ccccc32)c(Cl)c1` [Lixivaptan, 5-fluoro-2-methyl-N-[4-(5H-pyrrolo[2,1-C] [1,4]benzodiazepin-10(11H)-ylcarbonyl)-3-chlorophenyl]benzamide] here?
**A.** The value was “up to 12 hours”.

**Q.** What about the “suppression of Uosm to values <300 mOsm/kg” value (V2 receptor [1]; 800 mg dose only) of the same compound?
**A.** The value was “up to 24 hours”.

**Q.** And the “time Uosm remained below iso-osmolar point” value (V2 receptor [1]; 100-mg dose)?
**A.** The value was 4 h.

**Q.** What about the “time of minimal values of Uosm after drug administration” value (V2 receptor [1]; across all dose groups) of the same compound?
**A.** Its value is at most 2 h.

**Q.** What about the serum osmolality (V2 receptor [1]; all subjects given lixivaptan) of the same compound?
**A.** The serum osmolality was “significant dose-related increases”.

**Q.** What about the safety and tolerability (V2 receptor [1]; daily oral doses up to 800 mg, twice daily up to 400 mg, 14 consecutive days, healthy men) of the same compound?
**A.** The safety and tolerability was “safe and well tolerated”.

**Q.** What about the “minimal values of Uosm” value (V2 receptor [1]; doses of 25 mg and higher) of the same compound?
**A.** Its value is under 300 mOsm/L.

**Q.** And the “urine output, 0-to-24-hour collection interval” value (V2 receptor [1]; doses of 200 mg or larger, across 14 days, vs placebo)?
**A.** The value was “significantly greater urine output than placebo”.

**Q.** What about the “urine output, first 4 hours after drug administration” value (V2 receptor [1]; single dose of 25 mg or higher, vs placebo) of the same compound?
**A.** The value was “significantly greater urine output than placebo”.

**Q.** And the “Uvol (0-to-4-hours)” value (V2 receptor [1]; single doses of 25 mg and higher (day 1))?
**A.** Its value is “doubling”.

**Q.** And the “urinary osmolality suppressed to levels below target threshold” value (vasopressin V2 receptor)?
**A.** Its value is under 300 mOsm/kg.

**Q.** And the “Urine osmolality Change from baseline Mean” value (from here on “Urine osmolality Change”) (V2 receptor [2]; 0 to 2 hours postdose, ESRD)?
**A.** The value was −109.0 mosmol/kg.

**Q.** What about the “Urine osmolality Observed Mean” value (V2 receptor [2]; 0 to 2 hours postdose, ESRD, single 100 mg oral dose) of the same compound?
**A.** Its value is 216.5 mosmol/kg.

**Q.** And the “Urine osmolality Change” value (V2 receptor [2]; 0 to 2 hours postdose, Normal)?
**A.** The value was −398.5 mosmol/kg.

**Q.** What about the “Urine osmolality Observed Mean” value (V2 receptor [2]; 0 to 2 hours postdose, Normal, single 100 mg oral dose) of the same compound?
**A.** The value was 132.6 mosmol/kg.

**Q.** And the “Urine osmolality Change” value (V2 receptor [2]; 2 to 4 hours postdose, ESRD)?
**A.** The value was −108.7 mosmol/kg.

**Q.** And the “Urine osmolality Observed Mean” value (V2 receptor [2]; 2 to 4 hours postdose, ESRD)?
**A.** Its value is 202.4 mosmol/kg.

**Q.** What about the “Urine osmolality Change” value (V2 receptor [2]; 2 to 4 hours postdose, Normal) of the same compound?
**A.** Its value is −412.6 mosmol/kg.

**Q.** What about the “Urine osmolality Observed Mean” value (V2 receptor [2]; 2 to 4 hours postdose, Normal) of the same compound?
**A.** Its value is 109.9 mosmol/kg.

**Q.** And the “Urine osmolality Change” value (V2 receptor [2]; 4 to 8 hours postdose, ESRD)?
**A.** Its value is −118.3 mosmol/kg.

**Q.** What about the “Urine osmolality Observed Mean” value (V2 receptor [2]; 4 to 8 hours postdose, ESRD) of the same compound?
**A.** The value was 195.1 mosmol/kg.

**Q.** And the “Urine osmolality Change” value (V2 receptor [2]; 4 to 8 hours postdose, Normal)?
**A.** The value was −258.3 mosmol/kg.

**Q.** And the “Urine osmolality Observed Mean” value (V2 receptor [2]; 4 to 8 hours postdose, Normal)?
**A.** The value was 272.8 mosmol/kg.

**Q.** What about the “effect on change from baseline in urine osmolality” value (V2 receptor [2]; ESRD group) of the same compound?
**A.** The value was “markedly reduced”.

**Q.** And the “Urine osmolality Observed Mean” value (V2 receptor [2]; Predose, ESRD)?
**A.** Its value is 311.1 mosmol/kg.

**Q.** And the “Urine osmolality Observed Mean” value (V2 receptor [2]; Predose, Normal)?
**A.** The value was 514.7 mosmol/kg.

**Q.** And the vasopressin levels (V2 receptor [2]; both renal function groups)?
**A.** Its vasopressin levels is “elevations of vasopressin levels”.

**Q.** What about the urine output (V2 receptor [2]; normal group) of the same compound?
**A.** The urine output was “increased urine output”.

**Q.** And the logP (Measured Log P)?
**A.** Its logP is 1.

**Q.** And the “ALT elevations in treated individuals” value [3]?
**A.** Its value is “no ALT elevations”.

**Q.** What about the “headache considered possibly or probably related to study drug” value ([4]; 100 mg group) of the same compound?
**A.** The value was 2 subject.

**Q.** What about the “headache considered possibly or probably related to study drug” value ([4]; 200 mg group) of the same compound?
**A.** Its value is 1 subject.

**Q.** What about the “asthenia considered possibly or probably related to study drug” value ([4]; 400 mg group) of the same compound?
**A.** Its value is 1 subject.

**Q.** And the “headache considered possibly or probably related to study drug” value ([4]; 400 mg group)?
**A.** The value was 1 subject.

**Q.** And the “vomiting considered possibly or probably related to study drug” value ([4]; 400 mg group)?
**A.** The value was 1 subject.

**Q.** What about the urine output ([4]; Days 1-8) of the same compound?
**A.** The urine output was “increased”.

**Q.** What about the serum osmolality ([4]; during the study, dose related) of the same compound?
**A.** The serum osmolality was “mildly increased”.

**Q.** And the tolerability ([4]; healthy subjects, 50-200 mg Q12H for 7.5 days)?
**A.** The tolerability was “well tolerated”.

**Q.** What about the “treatment-emergent AE chest discomfort” value ([4]; of the 57 enrolled subjects) of the same compound?
**A.** Its value is 2 subjects.

**Q.** And the “treatment-emergent AE constipation” value ([4]; of the 57 enrolled subjects)?
**A.** The value was 3 subjects.

**Q.** And the “treatment-emergent AE headache” value ([4]; of the 57 enrolled subjects)?
**A.** The value was 7 subjects.
